According to US20260242789A1 (priority 2023, published 2026):
Where a name gives a salt, the structure may show the parent alone. Read-outs that look alike come from different tables or passages of the source.

Legend:
[1] = target: T1, SAMD9^134-385 protein (SAMD9 tRNase) (Homo sapiens, UniProt Q5K651); assay: biochemical
T1 construct: The recombinant SAMD9^134-385 or SAMD9^156-385 protein was expressed and purified from E. coli; SUMO (cleaved yes); 6xHis (cleaved yes); made in house; host or cells: E. coli
T1 sequence (Q5K651 134-385): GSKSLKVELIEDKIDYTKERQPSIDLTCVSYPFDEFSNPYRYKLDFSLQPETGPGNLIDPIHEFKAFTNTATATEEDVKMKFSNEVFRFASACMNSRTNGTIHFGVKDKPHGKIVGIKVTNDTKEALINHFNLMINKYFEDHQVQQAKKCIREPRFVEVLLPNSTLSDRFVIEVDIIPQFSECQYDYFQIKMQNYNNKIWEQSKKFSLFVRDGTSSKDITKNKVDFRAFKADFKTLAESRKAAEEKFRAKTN

[2] = target: T1, SAMD9^134-385 protein (SAMD9 tRNase); type: biochemical; conditions: at 2×IC50 concentration, two hours of reaction
[3] = target: T2, SAMD9 tRNase:tRNA complex (Homo sapiens, UniProt Q5K651); type: binding
T2 construct: The recombinant SAMD9^134-385 or SAMD9^156-385 protein was expressed and purified from E. coli; SUMO (cleaved yes); 6xHis (cleaved yes); made in house; host or cells: E. coli
T2 sequence (Q5K651 134-385): T1 sequence (Q5K651 134-385)

| Compound | IC50 [1] [nM] | cleavage of yeast tRNA by SAMD9 tRNase [2] | disruption of the SAMD9 tRNase:tRNA complex ([3]; 2:1 molar ratio) | disruption of the SAMD9 tRNase:tRNA complex ([3]; 20:1 molar ratio) | IC50 ([1]; dose response studies, cleavage of Phe17-Fret by SAMD9 tRNase, read-out: IC50) [nM] | disruption of the SAMD9 tRNase:tRNA complex ([3]; 100:1 molar ratio) |
| --- | --- | --- | --- | --- | --- | --- |
| Cc1cc(-c2ccc(/N=N/c3ccc4c(S(=O)(=O)O)cc(S(=O)(=O)O)c(N)c4c3O)c(C)c2)ccc1/N=N/c1ccc2c(S(=O)(=O)O)cc(S(=O)(=O)O)c(N)c2c1O [Evans Blue] | 1200 | blocked | disrupted the complex | completely disrupted | – | – |
| NCCOc1cc(C(=O)Nc2cc(OCCN)c3ccccc3n2)nc(C(=O)Nc2cc(OCCN)c3ccccc3n2)c1 [Pyridostatin TFA] | 7800 | partially reduced | – | – | – | – |
| Salvianolic acid B | – | blocked | – | minor effect | 3000 | did not completely disrupt |
